Data as given in US12036312B2, “Non-aqueous topical compositions comprising a halogenated salicylanilide” (priority 2016, dated 2024).
In brackets after ≈: the same amount, converted by molar mass.

Tested on: S. aureus
Test: MIC assay according to CLSI criteria, Example 2, S. aureus strains
Type: cell-based, Staphylococcus aureus
Settings: Staphylococcus aureus
From the text: Chosen for its relevance regarding bacterial skin infections, the methicillin-resistant S. aureus (MRSA) 01 strain was used as the primary test microorganism. This strain is a community-acquired MRSA clinical isolate of USA 300 type, from a skin abscess.
Two-hundred-four other MRSA and methicillin-sensitive S. aureus strains, and 4 Streptococcus pyogenes strains, were also included in the study. These covered fusidic acid- and mupirocin-resistant strains, these two types of resistance being of clinical relevance.
Strains were conserved in Luria Bertani (LB) Broth (S. aureus) or Brain Heart Infusion (BHI) (S. pyogenes) supplemented with glycerol 15% (v/v) at −80° C., and reactivated by isolation on LB (S. aureus) or BHI (S. pyogenes) agar plates. Strains were cultivated in Mueller Hinton (MH) Broth-cation adjusted (S. aureus) or BHI (S. pyogenes). All strains were cultivated aerobically (microaerobically for S. pyogenes strains) at 37° C.
Bacterial cultures were stopped in their exponential growth phase and plates were inoculated with the approximate concentration of 5×10^5 cells per well. Plates were incubated at 37° C. for 18 hours (S. aureus) or 24 hours (S. pyogenes). Optical density at a wavelength of 600 nm was measured at the end of the incubation time.

C=C[C@]1(C)C[C@@H](OC(=O)CS[C@@H]2C[C@H]3CC[C@@H](C2)N3C)[C@]2(C)[C@H](C)CC[C@]3(CCC(=O)[C@H]32)[C@@H](C)[C@@H]1O [Retapamulin, retapamulin]
MIC (MRSA, strain MRSA 99): 0.03 µg/mL (≈ 0.0579 µM) | MIC (MRSA, strain MRSA 100): 1 µg/mL (≈ 1.93 µM) | MIC (MRSA, strain MRSA 101): 0.03 µg/mL (≈ 0.0579 µM) | MIC (MRSA, strain MRSA 102): 0.03 µg/mL (≈ 0.0579 µM) | MIC (MRSA, strain MRSA 103): 0.03 µg/mL (≈ 0.0579 µM) | MIC (MRSA, strain MRSA 104): 0.03 µg/mL (≈ 0.0579 µM) | MIC (MRSA, strain MRSA 105): 0.03 µg/mL (≈ 0.0579 µM) | MIC (MRSA, strain MRSA 106): 0.06 µg/mL (≈ 0.116 µM) | MIC (MRSA, strain MRSA 107): 0.06 µg/mL (≈ 0.116 µM) | MIC (MRSA, strain MRSA 108): 0.03 µg/mL (≈ 0.0579 µM) | MIC (MRSA, strain MRSA 109): 0.03 µg/mL (≈ 0.0579 µM) | MIC (MRSA, strain MRSA 110): 0.03 µg/mL (≈ 0.0579 µM) | MIC (MRSA, strain MRSA 111): 0.03 µg/mL (≈ 0.0579 µM) | MIC (MRSA, strain MRSA 112): 0.03 µg/mL (≈ 0.0579 µM) | MIC (MRSA, strain MRSA 113): 0.03 µg/mL (≈ 0.0579 µM) | MIC (MSSA, strain MSSA 01): 0.03 µg/mL (≈ 0.0579 µM) | MIC (MSSA, strain MSSA 02): 0.03 µg/mL (≈ 0.0579 µM) | MIC (NEWMAN, strain Newman): 0.03 µg/mL (≈ 0.0579 µM) | MIC (strain 9-1862936): 0.03 µg/mL (≈ 0.0579 µM) | MIC (strain 9-2625962): 0.03 µg/mL (≈ 0.0579 µM) | MIC (strain 9-2642158): 0.06 µg/mL (≈ 0.116 µM) | MIC (strain 9-2955245): 0.06 µg/mL (≈ 0.116 µM) | MIC (strain 9-26422166): 0.03 µg/mL (≈ 0.0579 µM) | MIC (strain 000040C): 0.03 µg/mL (≈ 0.0579 µM) | MIC (strain 000041C): 0.03 µg/mL (≈ 0.0579 µM) | MIC (strain 000274T): 0.06 µg/mL (≈ 0.116 µM) | MIC (strain 114660U): 0.06 µg/mL (≈ 0.116 µM) | MIC (strain 115015T): 0.06 µg/mL (≈ 0.116 µM) | MIC (strain 115242C): 0.03 µg/mL (≈ 0.0579 µM) | MIC (strain 115263C): 0.03 µg/mL (≈ 0.0579 µM) | MIC (strain 115268C): 0.03 µg/mL (≈ 0.0579 µM) | MIC (strain 115273C): 0.03 µg/mL (≈ 0.0579 µM) | MIC (strain 115295C): 0.03 µg/mL (≈ 0.0579 µM) | MIC (strain 115303C): 0.03 µg/mL (≈ 0.0579 µM) | MIC (strain 115370U): 0.06 µg/mL (≈ 0.116 µM) | MIC (strain 115427C): 0.03 µg/mL (≈ 0.0579 µM) | MIC (strain 115445C): 0.03 µg/mL (≈ 0.0579 µM) | MIC (strain 115561C): 0.03 µg/mL (≈ 0.0579 µM) | MIC (strain 115584D): 0.06 µg/mL (≈ 0.116 µM) | MIC (strain 115628T): 0.03 µg/mL (≈ 0.0579 µM) | MIC (strain 115690C): 0.25 µg/mL (≈ 0.483 µM) | MIC (strain 115691T): 0.03 µg/mL (≈ 0.0579 µM) | MIC (strain 115740E): 0.06 µg/mL (≈ 0.116 µM) | MIC (strain 115810E): 0.06 µg/mL (≈ 0.116 µM) | MIC (strain 115903T): 0.03 µg/mL (≈ 0.0579 µM) | MIC (strain 116122T): 0.03 µg/mL (≈ 0.0579 µM) | MIC (strain E5-1029252): 0.03 µg/mL (≈ 0.0579 µM) | MIC (strain E5-1029558): 0.03 µg/mL (≈ 0.0579 µM) | MIC (strain E5-1030440): 0.06 µg/mL (≈ 0.116 µM) | MIC (strain E5-1030469): 0.03 µg/mL (≈ 0.0579 µM) | MIC (strain E5-1030472): 0.06 µg/mL (≈ 0.116 µM) | MIC (strain E5-1030482): 0.02 µg/mL (≈ 0.0386 µM) | MIC (strain E5-1033076 (first listing, r204)): 0.03 µg/mL (≈ 0.0579 µM) | MIC (strain E5-1033076 (second listing, r205)): 0.03 µg/mL (≈ 0.0579 µM) | MIC (strain E5-1033088): 0.03 µg/mL (≈ 0.0579 µM) | MIC (strain E5-1033091): 0.02 µg/mL (≈ 0.0386 µM) | MIC (strain E5-1035277): 0.03 µg/mL (≈ 0.0579 µM) | MIC (strain E5-1035284): 0.03 µg/mL (≈ 0.0579 µM) | MIC (strain E5-1035775): 0.06 µg/mL (≈ 0.116 µM) | MIC (strain E5-1035779): 0.03 µg/mL (≈ 0.0579 µM) | MIC (strain E5-1037958): 0.06 µg/mL (≈ 0.116 µM) | MIC (strain E5-1037971): 0.03 µg/mL (≈ 0.0579 µM) | MIC (strain E5-1038279): 0.03 µg/mL (≈ 0.0579 µM) | MIC (strain E5-1038286): 0.06 µg/mL (≈ 0.116 µM) | MIC (strain E5-1038294): 0.03 µg/mL (≈ 0.0579 µM) | MIC (strain E5-1039684): 0.06 µg/mL (≈ 0.116 µM) | MIC (strain E5-1039697): 0.06 µg/mL (≈ 0.116 µM) | MIC (strain E5-1041977): 0.03 µg/mL (≈ 0.0579 µM) | MIC (strain E5-1041979): 0.03 µg/mL (≈ 0.0579 µM) | MIC (strain E5-1041980): 0.03 µg/mL (≈ 0.0579 µM) | MIC (strain E5-1041987): 0.03 µg/mL (≈ 0.0579 µM) | MIC (strain E5-1043184): 0.03 µg/mL (≈ 0.0579 µM) | MIC (strain E5-1043668): 0.06 µg/mL (≈ 0.116 µM) | MIC (strain E5-1045179): 0.06 µg/mL (≈ 0.116 µM) | MIC (strain E5-1046019): 0.03 µg/mL (≈ 0.0579 µM) | MIC (strain E5-1046020): 0.06 µg/mL (≈ 0.116 µM) | MIC (strain E5-1046039): 0.06 µg/mL (≈ 0.116 µM) | MIC (strain E5-1046070): 0.03 µg/mL (≈ 0.0579 µM) | MIC (strain E5-1046074): 0.06 µg/mL (≈ 0.116 µM) | MIC (strain E5-1046085): 0.06 µg/mL (≈ 0.116 µM) | MIC (strain E5-1046096): 0.06 µg/mL (≈ 0.116 µM) | MIC (strain E5-1046296): 0.03 µg/mL (≈ 0.0579 µM) | MIC (strain E5-1046297): 0.06 µg/mL (≈ 0.116 µM) | MIC (strain E5-1046298): 0.03 µg/mL (≈ 0.0579 µM) | MIC (strain E5-1046723): 0.06 µg/mL (≈ 0.116 µM) | MIC (strain E5-1047585): 0.03 µg/mL (≈ 0.0579 µM) | MIC (strain E5-1047606): 0.03 µg/mL (≈ 0.0579 µM) | MIC (strain E5-1047924): 0.03 µg/mL (≈ 0.0579 µM) | MIC (strain E5-1048204): 0.03 µg/mL (≈ 0.0579 µM) | MIC (strain E5-1048428): 0.06 µg/mL (≈ 0.116 µM) | MIC (strain E5-1048654): 0.06 µg/mL (≈ 0.116 µM) | MIC (strain E5-1048670): 0.06 µg/mL (≈ 0.116 µM) | MIC (strain EEFIC 01): 0.03 µg/mL (≈ 0.0579 µM) | MIC (strain EEFIC 02): 0.03 µg/mL (≈ 0.0579 µM) | MIC (strain K000772): 0.06 µg/mL (≈ 0.116 µM) | MIC (strain K000796): 0.03 µg/mL (≈ 0.0579 µM) | MIC (strain K000863): 0.03 µg/mL (≈ 0.0579 µM) | MIC (strain K000864): 0.03 µg/mL (≈ 0.0579 µM) | MIC (strain K000866): 0.03 µg/mL (≈ 0.0579 µM) | MIC (strain K115498): 0.03 µg/mL (≈ 0.0579 µM) | MIC (strain K115688): 0.03 µg/mL (≈ 0.0579 µM) | MIC (strain K115689): 0.03 µg/mL (≈ 0.0579 µM) | MIC (strain R000019): 0.06 µg/mL (≈ 0.116 µM) | MIC (strain R000020): 0.03 µg/mL (≈ 0.0579 µM) | MIC (strain R000024): 0.06 µg/mL (≈ 0.116 µM) | MIC (strain U115579): 0.06 µg/mL (≈ 0.116 µM)
